The target in the experiment is recombinant, human, C-terminally-His tagged NAMPT (Homo sapiens, UniProt P43490). As to the kind of experiment: Time-Resolved Fluorescence Resonance Energy Transfer (TR-FRET) binding assay of NAMPT. The conditions noted are these: 6.8 nM NAMPT, 200 nM probe (Oregon Green 488-conjugated APO866), 2-3 hours. The procedure: Time-Resolved Fluorescence Resonance Energy Transfer (TR-FRET) Binding Assay of NAMPT
Plates were read with Envision (Laser Lantha low volume protocol) after 2 to 3 hours.

Structures are written as SMILES.

Chain of recombinant, human, C-terminally-His tagged NAMPT (P43490 whole entry): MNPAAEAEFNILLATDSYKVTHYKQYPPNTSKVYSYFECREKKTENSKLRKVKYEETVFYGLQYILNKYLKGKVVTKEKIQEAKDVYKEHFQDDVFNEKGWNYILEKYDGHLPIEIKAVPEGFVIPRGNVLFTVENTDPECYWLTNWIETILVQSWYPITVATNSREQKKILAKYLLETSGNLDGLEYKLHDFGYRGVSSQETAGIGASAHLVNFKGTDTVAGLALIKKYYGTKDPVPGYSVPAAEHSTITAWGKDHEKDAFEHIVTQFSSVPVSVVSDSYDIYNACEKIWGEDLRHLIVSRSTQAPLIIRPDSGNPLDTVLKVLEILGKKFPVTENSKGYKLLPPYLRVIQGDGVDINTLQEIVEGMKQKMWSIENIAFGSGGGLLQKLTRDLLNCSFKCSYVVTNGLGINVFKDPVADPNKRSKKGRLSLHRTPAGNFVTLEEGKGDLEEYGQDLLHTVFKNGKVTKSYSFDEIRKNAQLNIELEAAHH

On to `O=C(NCCN1CCCCCC1)c1ccc(NC(=O)N2Cc3ccccc3C2)cc1` [Example 1, N-(4-{[2-(azepan-1-yl)ethyl]carbamoyl}phenyl)-1,3-dihydro-2H-isoindole-2-carboxamide], for which the concentration for half-maximal inhibition (IC50) (as a rule, the concentration that gives 50% inhibition) amounted to 55.6 nM. Regarding `O=C(NCCN1CCNC1=O)c1ccc(NC(=O)N2Cc3ccccc3C2)cc1` [Example 3, N-(4-{[2-(2-oxoimidazolidin-1-yl)ethyl]carbamoyl}phenyl)-1,3-dihydro-2H-isoindole-2-carboxamide], the IC50 amounted to 32.6 nM.

In the case of `O=C(NCCC1CCCCO1)c1ccc(NC(=O)N2Cc3ccccc3C2)cc1` (centres unmarked) [Example 4, N-(4-{[2-(tetrahydro-2H-pyran-2-yl)ethyl]carbamoyl}phenyl)-1,3-dihydro-2H-isoindole-2-carboxamide], the concentration for half-maximal inhibition (IC50) worked out at 4.08 nM. To `CC1(CNC(=O)c2ccc(NC(=O)N3Cc4ccccc4C3)cc2)CCCO1` (centres unmarked) [Example 5, N-(4-{[(2-methyltetrahydrofuran-2-yl)methyl]carbamoyl}phenyl)-1,3-dihydro-2H-isoindole-2-carboxamide] belongs 6.92 nM.

On to `O=C(NCC1COC2(CCNCC2)C1)c1ccc(NC(=O)N2Cc3ccccc3C2)cc1` (centres unmarked) [Example 7, N-{4-[(1-oxa-8-azaspiro[4.5]dec-3-ylmethyl)carbamoyl]phenyl}-1,3-dihydro-2H-isoindole-2-carboxamide], for which the IC50 worked out at 7.39 nM. With `O=C(Nc1ccc(C(=O)N2CCC3(CC2)COC3)nn1)N1Cc2ccccc2C1` [Example 8, N-[6-(2-oxa-7-azaspiro[3.5]non-7-ylcarbonyl)pyridazin-3-yl]-1,3-dihydro-2H-isoindole-2-carboxamide] the figure was 92.2 nM; with `O=C(Nc1ccc(C(=O)N2CC3COCC3C2)nn1)N1Cc2ccccc2C1` (centres unmarked) [Example 9, N-[6-(tetrahydro-1H-furo[3,4-c]pyrrol-5(3H)-ylcarbonyl)pyridazin-3-yl]-1,3-dihydro-2H-isoindole-2-carboxamide], 442 nM. To `O=C(Nc1ccc(C(=O)N2CCC3OCCC3C2)nn1)N1Cc2ccccc2C1` (centres unmarked) [Example 10, N-[6-(hexahydrofuro[3,2-c]pyridin-5(4H)-ylcarbonyl)pyridazin-3-yl]-1,3-dihydro-2H-isoindole-2-carboxamide] belongs 952 nM; to `O=C(Nc1ccc(C(=O)N2CC3CCOC3C2)nn1)N1Cc2ccccc2C1` (centres unmarked) [Example 11, N-[6-(hexahydro-5H-furo[2,3-c]pyrrol-5-ylcarbonyl)pyridazin-3-yl]-1,3-dihydro-2H-isoindole-2-carboxamide], 270 nM. Turning to `O=C(Nc1ccc(C(=O)N2CCOC3(CCOC3)C2)nn1)N1Cc2ccccc2C1` (centres unmarked) [Example 12, N-[6-(2,6-dioxa-9-azaspiro[4.5]dec-9-ylcarbonyl)pyridazin-3-yl]-1,3-dihydro-2H-isoindole-2-carboxamide], the IC50 amounted to 2050 nM. With `O=C(Nc1ccc(C(=O)N2CC3(COC3)C2)nn1)N1Cc2ccccc2C1` [Example 13, N-[6-(2-oxa-6-azaspiro[3.3]hept-6-ylcarbonyl)pyridazin-3-yl]-1,3-dihydro-2H-isoindole-2-carboxamide] the figure was 626 nM; with `O=C(Nc1ccc(C(=O)N2CCCC3(COC3)C2)nn1)N1Cc2ccccc2C1` [Example 14, N-[6-(2-oxa-6-azaspiro[3.5]non-6-ylcarbonyl)pyridazin-3-yl]-1,3-dihydro-2H-isoindole-2-carboxamide], 885 nM. Take `O=C(Nc1ccc(C(=O)N2CCC3(CCOC3)C2)nn1)N1Cc2ccccc2C1` (centres unmarked) [Example 15, N-[6-(2-oxa-7-azaspiro[4.4]non-7-ylcarbonyl)pyridazin-3-yl]-1,3-dihydro-2H-isoindole-2-carboxamide]: the IC50 was 578 nM.

Regarding `O=C(Nc1ccc(C(=O)N2CCC3(CNCCC3(F)F)C2)nn1)N1Cc2ccccc2C1` (centres unmarked) [Example 16, N-{6-[(10,10-difluoro-2,7-diazaspiro[4.5]dec-2-yl)carbonyl]pyridazin-3-yl}-1,3-dihydro-2H-isoindole-2-carboxamide], the IC50 turned out to be 116 nM. With `N#CC1COC2(CCN(C(=O)c3ccc(NC(=O)N4Cc5ccccc5C4)nn3)CC2)C1` (centres unmarked) [Example 17, N-{6-[(3-cyano-1-oxa-8-azaspiro[4.5]dec-8-yl)carbonyl]pyridazin-3-yl}-1,3-dihydro-2H-isoindole-2-carboxamide] the figure was 158 nM.

Regarding `O=C(Nc1ccc(C(=O)N2CC3(CCOCC3)C2)nn1)N1Cc2ccccc2C1` [Example 18, N-[6-(7-oxa-2-azaspiro[3.5]non-2-ylcarbonyl)pyridazin-3-yl]-1,3-dihydro-2H-isoindole-2-carboxamide], the 50% inhibitory concentration (IC50) worked out at 388 nM. With `O=C(Nc1ccc(C(=O)N2CCC3(CCCO3)C2)nn1)N1Cc2ccccc2C1` (centres unmarked) [Example 19, N-[6-(1-oxa-7-azaspiro[4.4]non-7-ylcarbonyl)pyridazin-3-yl]-1,3-dihydro-2H-isoindole-2-carboxamide] the figure was 394 nM; with `O=C(Nc1ccc(C(=O)N2CCC3(CNCCC3F)C2)nn1)N1Cc2ccccc2C1` (centres unmarked) [Example 20, N-{6-[(10-fluoro-2,7-diazaspiro[4.5]dec-2-yl)carbonyl]pyridazin-3-yl}-1,3-dihydro-2H-isoindole-2-carboxamide], 406 nM; with `O=C(Nc1ccc(C(=O)N2CCC3(CCNCC3)CC2)nn1)N1Cc2ccccc2C1` [Example 21, N-[6-(3,9-diazaspiro[5.5]undec-3-ylcarbonyl)pyridazin-3-yl]-1,3-dihydro-2H-isoindole-2-carboxamide], 101 nM. With `O=C(Nc1ccc(C(=O)N2CCCC3(CCNC3)C2)nn1)N1Cc2ccccc2C1` (centres unmarked) [Example 22, N-[6-(2,7-diazaspiro[4.5]dec-7-ylcarbonyl)pyridazin-3-yl]-1,3-dihydro-2H-isoindole-2-carboxamide] the figure was 1270 nM. For the molecule `O=C(Nc1ccc(C(=O)N2CCC3(CCNC3)CC2)nn1)N1Cc2ccccc2C1` [Example 23, N-[6-(2,8-diazaspiro[4.5]dec-8-ylcarbonyl)pyridazin-3-yl]-1,3-dihydro-2H-isoindole-2-carboxamide], the IC50 turned out to be 140 nM. Take `O=C(NC1CCC12CNC2)c1ccc(NC(=O)N2Cc3ccccc3C2)nn1` (centres unmarked) [Example 25, N-[6-(2-azaspiro[3.3]hept-5-ylcarbamoyl)pyridazin-3-yl]-1,3-dihydro-2H-isoindole-2-carboxamide]: the IC50 turned out to be 2880 nM.

With `O=C(NC1[C@H]2CNC[C@@H]12)c1ccc(NC(=O)N2Cc3ccccc3C2)nn1` (stereo partly drawn) [Example 26, N-{6-[(1R,5S)-3-azabicyclo[3.1.0]hex-6-ylcarbamoyl]pyridazin-3-yl}-1,3-dihydro-2H-isoindole-2-carboxamide], the IC50 was determined as 2890 nM. To `O=C(NC[C@H]1CC2CNCCN2C1)c1ccc(NC(=O)N2Cc3ccccc3C2)nn1` (stereo partly drawn) [Example 27, N-(6-{[(7R)-octahydropyrrolo[1,2-a]pyrazin-7-ylmethyl]carbamoyl}pyridazin-3-yl)-1,3-dihydro-2H-isoindole-2-carboxamide] belongs 602 nM; to `O=C(Nc1ccc(C(=O)N2CC3(CCCNC3)C2)nn1)N1Cc2ccccc2C1` [Example 28, N-[6-(2,6-diazaspiro[3.5]non-2-ylcarbonyl)pyridazin-3-yl]-1,3-dihydro-2H-isoindole-2-carboxamide], 3150 nM. Take `O=C(Nc1ccc(C(=O)N2CC3(CCNCC3)C2)nn1)N1Cc2ccccc2C1` [Example 29, N-[6-(2,7-diazaspiro[3.5]non-2-ylcarbonyl)pyridazin-3-yl]-1,3-dihydro-2H-isoindole-2-carboxamide]: the IC50 worked out at 454 nM. To `O=C(Nc1ccc(C(=O)N2CCC3(CNC3)C2)nn1)N1Cc2ccccc2C1` [Example 30, N-[6-(2,6-diazaspiro[3.4]oct-6-ylcarbonyl)pyridazin-3-yl]-1,3-dihydro-2H-isoindole-2-carboxamide] belongs 7190 nM; to `O=C(NCC1CCC2(CCNCC2)CO1)c1ccc(NC(=O)N2Cc3ccccc3C2)nn1` (centres unmarked) [Example 31, N-{6-[(2-oxa-9-azaspiro[5.5]undec-3-ylmethyl)carbamoyl]pyridazin-3-yl}-1,3-dihydro-2H-isoindole-2-carboxamide], 253 nM. To `O=C(NCC1CCC2(CCNCC2)O1)c1ccc(NC(=O)N2Cc3ccccc3C2)nn1` (centres unmarked) [Example 32, N-{6-[(1-oxa-8-azaspiro[4.5]dec-2-ylmethyl)carbamoyl]pyridazin-3-yl}-1,3-dihydro-2H-isoindole-2-carboxamide] belongs 782 nM; to `O=C(NCC1COC2(CCNCC2)C1)c1ccc(NC(=O)N2Cc3ccccc3C2)nn1` (centres unmarked) [Example 33, N-{6-[(1-oxa-8-azaspiro[4.5]dec-3-ylmethyl)carbamoyl]pyridazin-3-yl}-1,3-dihydro-2H-isoindole-2-carboxamide], 284 nM; to `O=C(Nc1ccc(C(=O)N2CCC3(CC2)CNC3)nn1)N1Cc2ccccc2C1` [Example 34, N-[6-(2,7-diazaspiro[3.5]non-7-ylcarbonyl)pyridazin-3-yl]-1,3-dihydro-2H-isoindole-2-carboxamide], 218 nM. To `O=C(Nc1ccc(C(=O)N2CCC3(CCNCC3)C2)nn1)N1Cc2ccccc2C1` [Example 35, N-[6-(2,8-diazaspiro[4.5]dec-2-ylcarbonyl)pyridazin-3-yl]-1,3-dihydro-2H-isoindole-2-carboxamide] belongs 404 nM.

With `O=C(Nc1ccc(C(=O)N2CCC(C3CNC3)C2)nn1)N1Cc2ccccc2C1` (centres unmarked) [Example 36, N-(6-{[3-(azetidin-3-yl)pyrrolidin-1-yl]carbonyl}pyridazin-3-yl)-1,3-dihydro-2H-isoindole-2-carboxamide], the concentration for half-maximal inhibition (IC50) worked out at 791 nM.

For the molecule `O=C(NCc1nc2c([nH]1)CNCC2)c1ccc(NC(=O)N2Cc3ccccc3C2)nn1` [Example 37, N-{6-[(4,5,6,7-tetrahydro-3H-imidazo[4,5-c]pyridin-2-ylmethyl)carbamoyl]pyridazin-3-yl}-1,3-dihydro-2H-isoindole-2-carboxamide], the IC50 is 934 nM. With `O=C(NC1COC2(CCNCC2)C1)c1ccc(NC(=O)N2Cc3ccccc3C2)nn1` (centres unmarked) [Example 38, N-[6-(1-oxa-8-azaspiro[4.5]dec-3-ylcarbamoyl)pyridazin-3-yl]-1,3-dihydro-2H-isoindole-2-carboxamide] the figure was 869 nM.

(Values after patent publication US20170253562A1, “Nampt Inhibitors” (AbbVie Inc., priority 2011, published 2017).)
